Series [1] deals with intracellular HDAC activity. Put plainly: Intracellular HDAC activity, non-lytic HDAC-Glo I/II assay in HEK293 and K562 cells. It is filed as cell-based. To be noted: PBI-5040 relative to SAHA, 2 h. The procedure:
HEK293 cells were plated into a 96-well plate at 1×10^5 cell/ml, and 24 h later, the media was replaced with serum free media. K562 cells were plated in serum free media (96-well plate) at 2×10^5 cells/ml.

The test system of series [2] is all known target of SAHA (HDAC1, HDAC2, HDAC3, HDAC6, HDAC8, HDAC10). Put plainly: Pull-down of endogenous targets from K562 cells onto HaloTag protein beads, Western blot and mass spec analysis. It is filed as cell-based. As to the method: K562 cells were plated into 150 mm dishes at 1.66×10^6 cell/ml (total of 5×10^7 cells per dish). […] Following equilibrium binding of 2 h, the media was removed; cells were quickly washed with PBS; cells lysed in a detergent-based lysis buffer for 10 min and centrifuged at 3000×g for 1 min. Clear lysates were then added to 75 ul of settled paramagnetic HaloTag® protein beads and incubated with shaking for 15 min. […] The released targets were subjected to mass spec analysis (FIG. 14B) as well as western blot analysis (FIG. 14A) with anti-HDAC1 antibody (ABCAM), anti-HDAC2 antibody (ABCAM), anti-HDAC6 antibody (Millipore), anti-HDAC3 antibody (Thermo Fisher), anti-HDAC10 (ABCAM) and anti-HDAC8 antibody (Rockland).
(Immunoblotting shows a protein as a band on a membrane.)

The test system of series [3] is HaloTag® protein. Nature of the series: Binding efficiency/kinetics to HaloTag protein in cells (cell permeability; chase with fluorescent HaloTag ligand, SDS-PAGE). It is filed as cell-based. To be noted: SAHA-chloroalkane conjugates, 10 μM, 0-180 min; HaloTag localized to cytoplasm or nucleus; compared with PBI-5231 (O6). The procedure: b) Binding efficiency to HaloTag® protein in cells was measured by adding the methotrexate-chloroalkane conjugates to cells expressing a HaloTag® protein to a final concentration of 10 μM. Following 0-120 mins of binding, the reactions were chased with 5 μM fluorescent HaloTag® ligand. Unbound HaloTag® protein was detected through binding to the fluorescent HaloTag® ligand followed by cell lysis, analysis on a SDS-PAGE gel and detection on a fluorescent gel scanner.
b) Binding efficiency to HaloTag® protein in cells was measured by adding the dexamethasone-chloroalkane conjugates to cells expressing a HaloTag® protein to a final concentration of 10 μM. Following 0-60 mins of binding, the reaction was chased with 5 μM fluorescent HaloTag ligand. Unbound HaloTag® protein was detected through binding to the fluorescent HaloTag® ligand followed by cell lysis, analysis on SDS-PAGE gel and detection on a fluorescent gel scanner.
b) Binding kinetics to HaloTag® protein in cells was measured by adding the modified BIRB796-chloroalkane conjugates to cells expressing a HaloTag® protein at a final concentration of 10 μM. Following 0-60 min of binding, the reactions were chased with 5 μM fluorescent HaloTag® ligand. Unbound HaloTag® protein was detected through binding to the fluorescent HaloTag® ligand followed by cell lysis, analysis on SDS-PAGE and detection on a fluorescent gel scanner.
Following 0-180 min of binding, the reactions were chased with 5 μM fluorescent HaloTag® ligand. Unbound HaloTag® protein was detected through binding to the fluorescent HaloTag® ligand followed by cell lysis, analysis on SDS-PAGE and detection on a fluorescent gel scanner.
b) Binding kinetics to HaloTag® protein in cells was measured by adding the dasatinib-chloroalkane conjugates (final concentration of 10 μM) to cells expressing a HaloTag protein which localized to the cytoplasm or the nucleus. Following 0-90 min of binding, the reactions were chased with 5 μM fluorescent HaloTag® ligand. Unbound HaloTag® protein was detected through binding to the fluorescent HaloTag® ligand followed by cell lysis, analysis on SDS-PAGE and detection on a fluorescent gel scanner.

Series [4] has as its system HaloTag® protein. Nature of the series: Binding efficiency/kinetics to HaloTag protein in cell lysate (chase with fluorescent HaloTag ligand, SDS-PAGE). Conditions: SAHA-chloroalkane conjugates, 1 μM, 0-60 min; compared with PBI-5231 (O6). As to the method:
a) Binding efficiency to HaloTag® protein in lysate was measured by adding the methotrexate-chloroalkane conjugates to lysate from cells expressing a HaloTag® protein to a final concentration of 1 μM. Following 0-60 mins of binding, the reactions were chased with 1 μM fluorescent HaloTag® ligand. Unbound HaloTag® protein was detected through binding to the fluorescent HaloTag® ligand followed by analysis on SDS-PAGE gel and detection on a fluorescent gel scanner.
a) Binding efficiency to HaloTag® protein in lysate was measured by adding the dexamethasone-chloroalkane conjugates to lysate from cells expressing a HaloTag® protein to a final concentration of 1 μM. Following 0-60 mins of binding, the reactions were chased with 1 μM fluorescent HaloTag® ligand. Unbound HaloTag® protein was detected through binding to the fluorescent HaloTag ligand followed by analysis on SDS-PAGE gel and detection on a fluorescent gel scanner.
a) Binding kinetics to HaloTag® protein in cell lysate was measured by adding the modified BIRB796-chloroalkane conjugates to lysate from cells expressing a HaloTag® protein at a final concentration of 1 μM. After 0-60 min of binding, the reactions were chased with 1 μM fluorescent HaloTag® ligand (Promega Corporation). Unbound HaloTag® protein was detected through binding to the fluorescent HaloTag® ligand followed by analysis on SDS-PAGE and detection on a fluorescent gel scanner.
Following 0-60 min of binding, the reactions were chased with 1 μM fluorescent HaloTag® ligand. Unbound HaloTag® protein was detected through binding to the fluorescent HaloTag® ligand followed by analysis on SDS-PAGE and detection on a fluorescent gel scanner.
a) Binding kinetics to HaloTag® protein in cell lysate was measured by adding the dasatinib-chloroalkane conjugates to lysate (final concentration of 1 μM) from cells expressing a HaloTag® protein. Following 0-60 min of binding, the reactions were chased with 1 μM fluorescent HaloTag® ligand. Unbound HaloTag® protein was detected through binding to the fluorescent HaloTag® ligand followed by analysis on SDS-PAGE and detection on a fluorescent gel scanner.

Series [5] concerns the target T1, ABL-NanoLuc® fusion protein (Homo sapiens, UniProt P00519).
T1 construct: expressed in transfected cells; host or cells: HEK293
Put plainly: Pull-down of ABL-NanoLuc fusion from live HEK293 cells onto HaloTag protein beads. It is filed as cell-based. To be noted: HEK293, 20 μM conjugate, 2 h; beads 15 min; release with 400 μM dasatinib. The procedure:
c) The 2 carbamate linkers were also compared for their ability to specifically pull down a ABL-NanoLuc® fusion protein from live cells. HEK293 cells were transfected using PEI with plasmid DNA encoding ABL-NanoLuc® fusion (transfection was done in a 96-well format). The DNA was diluted 1:100 with a promoterless carrier DNA plasmid (pCI-neo; Promega Corporation) to a final concentration of 80 ng total DNA per well. Twenty-four hours post-transfection, cells were incubated with a final concentration of 20 μM PBI-5270 or PBI-5590 while control cells were not treated with the conjugated drug. Following equilibration binding of 2 h, the media was removed; cells were quickly washed with PBS; and cells lysed in detergent-based lysis buffer for 10 min. Cell lysates were then transferred to a 96-well plate containing 0.5 μl settled paramagnetic HaloTag® protein beads and incubated with shaking for 15 min. Following binding, the unbound fraction was removed, the HaloTag® protein paramagnetic beads were washed 3×, and the captured ABL-NanoLuc® fusion was specifically released from the beads by competition with 400 μM unconjugated dasatinib for 15 min. The released ABL-NanoLuc® fusion in the experiment (+PBI-5270 or +PBI-5590) and control samples was detected by NanoGlo® reagent.

We go through 2 compounds from patent US11072812B2, “Substrates for covalent tethering of proteins to functional groups or solid surfaces” (PROMEGA CORPORATION, priority 2013, dated 2021).

T1 sequence (P00519 whole entry, the tested form may be a part): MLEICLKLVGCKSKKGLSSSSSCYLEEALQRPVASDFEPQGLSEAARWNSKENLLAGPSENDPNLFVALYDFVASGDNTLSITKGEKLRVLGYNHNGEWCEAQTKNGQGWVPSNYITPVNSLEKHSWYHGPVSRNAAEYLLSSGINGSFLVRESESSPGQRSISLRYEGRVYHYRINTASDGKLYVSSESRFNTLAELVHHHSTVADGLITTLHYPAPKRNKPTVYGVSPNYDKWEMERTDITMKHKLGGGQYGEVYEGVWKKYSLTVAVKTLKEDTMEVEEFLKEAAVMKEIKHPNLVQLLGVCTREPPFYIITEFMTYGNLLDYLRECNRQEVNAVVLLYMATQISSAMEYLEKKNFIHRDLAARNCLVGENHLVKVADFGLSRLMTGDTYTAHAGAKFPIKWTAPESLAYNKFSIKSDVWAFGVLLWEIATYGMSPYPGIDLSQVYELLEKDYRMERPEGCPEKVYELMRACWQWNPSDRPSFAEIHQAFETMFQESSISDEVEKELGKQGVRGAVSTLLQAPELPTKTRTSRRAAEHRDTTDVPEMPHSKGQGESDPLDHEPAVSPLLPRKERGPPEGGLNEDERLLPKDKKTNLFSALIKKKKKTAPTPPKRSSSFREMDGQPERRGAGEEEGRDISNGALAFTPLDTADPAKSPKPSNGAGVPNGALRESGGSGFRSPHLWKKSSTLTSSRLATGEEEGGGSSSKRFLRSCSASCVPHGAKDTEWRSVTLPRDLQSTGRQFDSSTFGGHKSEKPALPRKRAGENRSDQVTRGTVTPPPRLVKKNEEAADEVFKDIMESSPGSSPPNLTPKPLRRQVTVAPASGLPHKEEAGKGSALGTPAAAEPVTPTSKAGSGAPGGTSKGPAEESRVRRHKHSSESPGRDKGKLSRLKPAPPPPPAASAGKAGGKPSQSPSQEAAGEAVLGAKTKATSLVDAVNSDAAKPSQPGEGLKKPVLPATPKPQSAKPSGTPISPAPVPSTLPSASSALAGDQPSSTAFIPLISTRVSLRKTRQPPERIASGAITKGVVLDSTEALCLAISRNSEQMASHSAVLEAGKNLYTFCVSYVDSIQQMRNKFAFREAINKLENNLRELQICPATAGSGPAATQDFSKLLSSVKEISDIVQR

Regarding `O=C(CCCCCCC(=O)Nc1ccc(CNC(=O)OCCOCCOCCOC(=O)NCCOCCOCCCCCCCl)cc1)NO` [PBI-5040, SAHA-Carbamate], the “reduction in SAHA potency due to the chloroalkane modification” value in series [1] is recorded as roughly 2 fold. For the same compound, in series [2] (20 uM, 2 h, beads 15 min, release with 400 μM SAHA), the “pull-down of endogenous SAHA targets incl. low affinity (HDAC8) and low abundance (HDAC3) target” value is on record as “specifically pulled down”. The cellular permeability result in series [2] (inferred from pull down of nuclear (HDAC1) and cytoplasmic (HDAC 6) proteins) is “high”. Moreover, in the series with HaloTag® protein [3], the “permeability/binding kinetics to HaloTag protein in cells” value was “significantly faster permeability/binding kinetics”. Besides, the “binding kinetics to HaloTag protein in cell lysate” value with HaloTag® protein [4] is listed as “significantly faster binding kinetics”.
Take `Cc1nc(Nc2ncc(C(=O)Nc3c(C)cccc3Cl)s2)cc(N2CCN(CCOC(=O)NCCCCCNC(=O)OCCOCCOCCOC(=O)NCCOCCOCCCCCCCl)CC2)n1` [PBI-5270, Dasatinib Bis-Carbamate]: in series [5], the “pull-down of ABL:NanoLuc fusion from live cells” value is recorded as “pulled down efficiently”.
